# Values of other authors in US20040191168A1, “Tumor cell killing by cell cycle checkpoint abrogation combined with Inhibition of the classical mitogen activated protein (map) kinase pathway” (priority 2000, published 2004).
# Test system: colon tumor cells
# Conditions: mice (Sebolt-Leopold et al., 1999); cited from earlier work
smiles,measurement,value
O=C(NOCC1CC1)c1ccc(F)c(F)c1Nc1ccc(I)cc1Cl [PD184352],in vivo growth of colon tumor cells,inhibit the in vivo growth of colon tumor cells in mice
